From paper PMC6054100, “Exploring the chemical space of the lysine-binding pocket of the first kringle domain of hepatocyte growth factor/scatter factor (HGF/SF) yields a new class of inhibitors of HGF/SF-MET binding” (Chemical Science, 2015)

How the values were obtained:
[1] = biological target: T1, NK1 (Homo sapiens, UniProt P14210); assay: SPR steady-state binding to immobilized NK1 (Biacore T100); parameters: made in house; host or cells: Pichia pastoris
Procedure, shortened: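 NK1 amine-coupled to a CM5 chip at 6000 RU; compound serial dilutions in PBS pH 7.4 with 0.05% Tween 20 injected at 30 μL min^–1, 1 min contact and 1 min dissociation. Binding constants derived from steady-state sensorgram analysis.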

[2] = biological target: T2, lysine-binding pocket of the kringle domain of NK1 (Homo sapiens, UniProt P14210); assay: Soaking into NK1 apo crystals, X-ray crystallography; conditions: soaked into NK1 apo crystals
T2 construct: made in house; host or cells: Pichia pastoris
T2 sequence (P14210 32-210 isoform P14210-6 limits assumed): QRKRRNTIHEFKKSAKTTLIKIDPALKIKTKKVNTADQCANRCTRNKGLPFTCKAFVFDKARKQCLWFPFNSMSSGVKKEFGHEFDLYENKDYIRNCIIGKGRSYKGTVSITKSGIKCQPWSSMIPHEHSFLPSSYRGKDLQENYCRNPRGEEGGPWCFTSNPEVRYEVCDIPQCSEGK
Procedure: Next, three classes of piperazine-like sulphonated compounds containing piperazine ((H)EPPS and PIPES), morpholine (MES and MOPS), or cyclohexane (CHES and CAPS) rings were studied for their binding to NK1 (Table 1), alongside another five sulphonated compounds selected from a chemical fragment library (Table 2).
NK1 buffered in 150 mM NaCl, 50 mM Tris, pH 7.5 (apo-NK1 and all soaking experiments) was concentrated to ∼20 mg mL^–1 using a Vivaspin device with a 10 kDa cut-off membrane (Sartorius Biolab). Crystallisation was carried out in Linbro plates by the vapour diffusion hanging drop technique using a protein : precipitant ratio of 1 : 1 at 20 °C. Previously NK1 has been crystallised in 18% PEG 4000, 200 mM sodium acetate and 150 mM Tris pH 8.5 as precipitant.[19] Here final crystallisation conditions (19% PEG 4000, 200 mM sodium acetate and 150 mM Tris pH 7.5) were optimised around those to achieve high-resolution apo structure. Details of compound soaking, X-ray data collection and structure determination are given in the ESI ^† section of the manuscript. […]
For this, 1 M stock solutions were prepared in DMSO (fragments) or water (piperazine- like compounds) and the pH adjusted to a value within their buffering range with either HCl or NaOH. The seven piperazine- like compounds and their respective pH are: HEPES (pH 7.6), (H)EPPS (pH 7.4), PIPES (pH 7.0), MES (pH 5.8), MOPS (pH 7.2), CHES (pH 8.6) and CAPS (pH 9.7). Secondary stocks of the compounds at 50 mM were prepared in the […]
respective mother liquor and soaked for up to 48 hours.
MB605 was solubilised in 50% DMSO at 20 mM concentration (1% f inal DMSO concentration in the drop) in order to minimize adverse effects of DMSO on the protein crystal. 25% ethylene glycol was used as the cryoprotective agent.
X-ray data collection and processing
X-ray datasets were collected either at the European Synchrotron Radiation Facility (ESRF, Grenoble, France), the Diamond Light Source (DLS, Oxford, UK) or in-house using the X8 PROTEUM (Bruker AXS) at the Department of Biochemistry, University of Cambridge.
Datasets of at least 180° were collected. Raw data collected at synchrotrons were integrated, merged, scaled and reduced using DENZO and […].2 Raw data […]
collected in- house were integrated, merged, scaled and reduced using the PROTEUM 2 software package .3 The CCP4 suite of crystallographic programs (Collaborative

[3] = biological target: T1, NK1; assay: SPR fragment library screening against NK1; type: binding; parameters: made in house; host or cells: Pichia pastoris; conditions: for SPR response: normalised relative value against NK1
Procedure: Supplementary Materials and Methods
Fragment library screening and data analysis
Met567 (soluble truncated f ragment of the MET ectodomain, residues 25- 567), NK1 and t he SPH domain were immobilized on CM5 chips by amine coupling. NK1 was diluted into 10 m M phosphate pH 7.0 and the SPH domain into 10 mM acetate pH 5.5 to a final concentration of 2.5 μM and 1 μM, respectively, for coupling. The immobilization wizard within the Biacore T100 software was set to “aim for immobiliz ed level” of 8000 RU to achieve complete saturation of the chip surface.
W ith minor deviations, the procedure and conditions outlined below were used f or a ll screening s of an in-house fragment library of 1338 members against individual target proteins. The running buffer was PBS pH 7.4, 0.05% Tween 20, 0.25% DMSO (1% DMSO for Met567). Fragments were stored as 100 mM stock solutions in DMSO. Prior to screening, fragment samples were diluted to 500 μM (1 mM f or Met567) in running buffer.
Screening was performed in 96- we ll plates at a flow rate of 30 μl min-1 with 1 min sample injection f ollowed by dissociation f or 1 min and surf ace regeneration using 1 M NaCl f or 30 […]
post-regeneration baseline exceeded the pre- sample baseline by more than 10 RU, a second regeneration cycle with 50% ethylene glycol was used. In order to be able to correct for small variations in DMSO concentration between samples, eight solvent samples ranging from 0.012 to 1.5% DMSO were injected every 40th cycle. To monitor the binding capacity of the NK1, SPH and Met567 surfaces throughout the screening, injections of 500 μM HEPES (NK1), 0.25 μM Met567 (SPH) and 0.2 μM NK1 and 1% DMSO (Met567) were carried out every 40th cycle. The flow cell temperature was 25°C. NK1 and the SPH domain were immobilized on the same chip (channels 2 and 3 respectively) and were theref ore screened in parallel. Met567 was screened separately and results are published in an accompanying paper (W in t er et al. 2015, in revision).
For data analysis, fir st, all responses were reference and solvent corrected. 1 Next, equilibrium binding for every fragment was determined and hits established by applying several filters: sensorgram shape, upper and lower threshold. Typical sensorgrams from fragment screening show “square curves” in SPR due to the fast on and off rates and fragments not showing this response were discarded from further analysis. Binding levels are represented as response units (RU) but the SPR signal is a convolution of multiple parameters including target coupling density, target -binding activity, target molecular weight and molecular weight of each injected fragment. To be able to identif y hits accurately and to be able to compare responses between different plates and targets, data were normalised against these factors. First the theoretical maximum response for each fragment was calculated using equation 1:
RRmmm = CCCCCCCC ddCdCdd× MMffmCmdCd (Equation 1)
This RUmax value diff ers for each protein target because it depends on the molecular weight of the protein and the amount of protein immobilized on the chip (coupling density). The RUmax was then used to calculate the normalised relative SPR response:
NNNNNNNNNN NNNNr NrN SSR NNNrNrNN = RRcppppcppc× 100% (Equation 2) […]
fragment should cause upon binding. 100% response would be 1:1 binding wit h levels above 100% implying over-stoichiometric binding. […]
Fragment library screening to identify small molecule binders

T1 sequence (P14210 32-210 isoform P14210-6 limits assumed): as above

With `O=C(O)CCc1ccco1` [MB605] the “affinity for NK1 relative to HEPES” value ([1]; fold better than HEPES) was “about ten times better affinity”, the Kd ([1]; steady-state binding constant from SPR, fragment hits (Table 3, text), read-out: KD) was 310 ± 40 µM and the “binding in the lysine-binding pocket (crystal structure)” value [2] was “binds in the lysine-binding pocket”. For the same compound, the Ranking order ([3]; based on fragment screening, rank among the 71 NK1 hits (ESI Tables S3-S7)) was 1, the SPR response ([3]; fragments 500 μM (ESI Tables S3-S7)) was 215% and the SPR response ([3]; initial fragment screening, fragments 500 μM (Table 3)) was 215%.
